Results from patent US20250352525A1, “COMPOSITIONS AND METHODS OF TREATING TRAUMATIC BRAIN INJURY” (United States Government As Represented By The Department …, priority 2024, published 2025).

How the values were obtained:
[1] = molecular target: T1, mmSTING (Mus musculus, UniProt Q3TBT3); settings: covalent small-molecule inhibitor; cited from earlier work
T1 sequence (Q3TBT3 1-378): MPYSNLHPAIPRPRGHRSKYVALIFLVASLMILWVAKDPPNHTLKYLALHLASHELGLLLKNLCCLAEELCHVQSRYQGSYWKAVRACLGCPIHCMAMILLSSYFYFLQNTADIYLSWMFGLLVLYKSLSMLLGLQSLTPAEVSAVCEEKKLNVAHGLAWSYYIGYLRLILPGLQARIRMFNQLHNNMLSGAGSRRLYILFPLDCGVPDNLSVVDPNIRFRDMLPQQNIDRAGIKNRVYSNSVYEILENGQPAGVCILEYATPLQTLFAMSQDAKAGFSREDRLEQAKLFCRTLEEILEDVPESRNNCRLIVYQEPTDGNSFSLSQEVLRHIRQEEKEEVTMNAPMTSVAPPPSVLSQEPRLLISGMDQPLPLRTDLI

[2] = molecular target: hsSTING (Homo sapiens, UniProt Q86WV6); settings: covalent small-molecule inhibitor; cited from earlier work
Sequence of hsSTING (Q86WV6 whole entry H232R): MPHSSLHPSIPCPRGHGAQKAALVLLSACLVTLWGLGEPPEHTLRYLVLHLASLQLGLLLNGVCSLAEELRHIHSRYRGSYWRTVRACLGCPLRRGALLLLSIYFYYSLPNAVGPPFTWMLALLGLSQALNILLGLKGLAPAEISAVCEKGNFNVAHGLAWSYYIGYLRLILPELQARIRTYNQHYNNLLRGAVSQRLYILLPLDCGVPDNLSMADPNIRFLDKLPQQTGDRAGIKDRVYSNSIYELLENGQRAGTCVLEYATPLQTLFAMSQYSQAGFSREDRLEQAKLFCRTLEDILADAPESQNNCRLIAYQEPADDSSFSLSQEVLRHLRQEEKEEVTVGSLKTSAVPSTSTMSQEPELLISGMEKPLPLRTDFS

[3] = tested on: CCL20; assay: qPCR for CCL20 in PolyIC-stimulated BV2 cells; type: cell-based; settings: dosed 2 hours, then PolyIC 24 hours
Protocol: (§1) Experimental design: BV2 cells were plated in a 6-well plate and allowed to adhere overnight. Plates were dosed with clonixin butyl ketone or H151 for 2 hours and then PolyIC for 24 hours to induce inflammation. qPCR was performed to measure expression of CCL20 and IL-6 inflammatory genes and immunomodulatory Irf-3 gene.

[4] = tested on: IBA1; assay: Immunocytochemistry of IBA1 in poly (I:C)-stimulated BV2 microglial cells, integrated density (ImageJ); type: cell-based; settings: pre-treated 2 h, then poly (I:C) 6 h, normalized to blank
Protocol: (§2) Experimental design: IMG or BV2 cells were plated in a 96-well or 6-well plate and allowed to adhere overnight. Plates were dosed with clonixeril for 2 hours and then LPS or polyinosinic-polycytidylic acid (polyIC) for 24 hours to induce inflammation. Ionized calcium-binding adaptor molecule 1 (IBA1) and pSTING expression were imaged and immunohistochemistry was measured (ImageJ).
Controls used are a blank (untreated); and 25 ng/ml poly (I:C) treatment for 6 h. Immunocytochemistry of BV2 cells pre-treated with a known STING inhibitor H151, clonixeril or a ketone analogue of clonixin (e.g., clonixin butyl ketone) for 2 h and then treated with poly (I:C) for 6 h, stained with IBA1 antibody (red) and DAPI (blue) to visualize nuclei. […] Separate channels were quantified by ImageJ for IBA1 (red) and DAPI (blue) pixel density. A ratio of red signal to blue signal was calculated for each image. Ratios were averaged for each experimental group and normalized to the blank (control) group.

[5] = tested on: pSTING; assay: Immunocytochemistry of pSTING in poly (I:C)-stimulated HT22 hippocampal cells, integrated density (ImageJ); type: cell-based, mouse; settings: pre-treated 2 h, then poly (I:C) 6 h, normalized to blank
Protocol: Cells were untreated, or pre-treated with vehicle or STING-inhibitory compounds H151, a ketone analog of clonixin (e.g., clonixin butyl ketone), clonixeril (CXL) for 2 h and then treated with poly (I:C) for 6 h. Cells were then stained with DAPI (blue, top row) to visualize nuclei and pSTING antibody (red, bottom 5 row). Images are presented separately for enhanced clarity. Scale bar 100 μm.
Error bars represent mean ±standard deviation (SD). Separate channels were quantified by ImageJ for pSTING (red) and DAPI (blue) pixel density. A ratio of red signal to blue signal was calculated for each image. Ratios were averaged for each experimental group and normalized to the blank (control) group.

[6] = tested on: Irf-3; assay: qPCR for Irf-3 in PolyIC-stimulated BV2 cells; type: cell-based; settings: dosed 2 hours, then PolyIC 24 hours
Protocol: as §1

[7] = tested on: IL-6; assay: qPCR for IL-6 in PolyIC-stimulated BV2 cells; type: cell-based; settings: dosed 2 hours, then PolyIC 24 hours
Protocol: as §1

[8] = tested on: phosphorylated STING (pSTING); assay: Western blot for pSTING in poly (I:C)-stimulated HT22 hippocampal cells; type: cell-based, mouse; settings: 100 pM pre-treatment 2 h, then poly (I:C) 6 h
Protocol: Immunoblot analysis of phosphorylated STING (pSTING) and β-actin in HT22 mouse hippocampal cells. Cells were pre-treated with 100 pM ketone analog of clonixin (e.g., clonixin butyl ketone) for 2 h, followed by 6 h stimulation with poly (I:C). Cell lysates were harvested at indicated time points using RIPA buffer supplemented with 1× Halt Protease and Phosphatase Inhibitor Cocktail, quantified via Bradford assay, and normalized to 20 μg protein per well. Lysates were resolved by SDS-PAGE and probed with rabbit polyclonal anti-pSTING and anti-β-actin antibodies.

[9] = tested on: pSTING; assay: Immunocytochemistry of pSTING in LPS-stimulated IMG cells, integrated density (ImageJ); type: cell-based; settings: pre-treated 2 h, then LPS 24 h, normalized to blank
Protocol: as §2
(§3) Cells were untreated, or pre-treated with vehicle or STING-inhibitory compound clonixeril for 2 h and then treated with LPS for 24 h. Cells were then stained with DAPI (blue) to visualize nuclei, IBA1 or pSTING antibody (red). Images are presented separately for enhanced clarity. […] Error bars represent mean ±standard deviation (SD). Separate channels were quantified by ImageJ for IBA1 or pSTING (red) and DAPI (blue) pixel density. A ratio of red signal to blue signal was calculated for each image. Ratios were averaged for each experimental group and normalized to the blank (control) group.

[10] = tested on: IBA1; assay: Immunocytochemistry of IBA1 in LPS-stimulated IMG cells, integrated density (ImageJ); type: cell-based; settings: pre-treated 2 h, then LPS 24 h, normalized to blank
Protocol: as §2, §3

Molecule	inhibition of mmSTING [1]	inhibition of hsSTING [2]	CCL20 expression at 1 picomolar concentration [3]	expression of CCL20 (qPCR) [3]	IBA1 integrated density [4]	pSTING (immunocytochemistry, integrated density) [5]	expression of interferon regulatory gene Irf3 (qPCR) [6]	expression of IL-6 (qPCR) [7]	poly (I:C)-induced STING phosphorylation (Western blot, normalized to β-actin) [8]	IL-6 expression at 1 picomolar concentration ([7]; 1 picomolar)	pSTING integrated density [9]	IBA1 integrated density [10]
CCCCCCc1ccc(NC(=O)c2ccc([N+](=O)[O-])o2)cc1 [C-171, N-(4-hexylphenyl)-5-nitro-2-furancarboxamide]	efficiently inhibits	efficiently inhibits										
CCc1ccc(NC(=O)Nc2c[nH]c3ccccc23)cc1 [H151]			but not H151 showed a significant reduction	significantly decreased	reduction	reduction	reduced significantly	significantly decreased				
CCCCC(=O)c1cccnc1Nc1cccc(Cl)c1C [clonixin butyl ketone, {2-[(3-chloro-2-methylphenyl)amino]pyridin-3-yl}-1-pentanone]			significant reduction	significantly decreased	reduction	reduction	reduced significantly	significantly decreased	inhibition	significant reduction		
clonixeril					reduction	reduction					reduction	reduction
